# Read-outs that look alike come from different tables or passages of the source.
# Experiments:
# [1] = test system: chloroquine-resistant and MDR clone Dd2 of P. falciparum; experiment: Antimalarial activity assay, SYBR Green I fluorescence-based method; format: cell-based, Plasmodium falciparum; conditions: for IC50: read-out: Antimalarial IC50 (Dd2); for IC90: read-out: Antimalarial IC90 (Dd2)
# Procedure: (§1) An antimalarial activity assay was carried out at the Oregon Translational Research and Drug Development Institute (OTRADI). Two strains of P. falciparum were used. The chloroquine-sensitive clone D6, and chloroquine-resistant and MDR clone Dd2 was obtained from the Malaria Research and Reference Reagent Resource Center (MR4) (Manassas, Va.). The parasites were cultured according to the method of Trager and Jensen (Trager and Jensen, Science, 1976, 193:673-675), with minor modifications. The cultures were maintained in human erythrocytes (Lampire Biological Laboratories, Pipersville, Pa.), suspended at 2% hematocrit in RPMI 1640 (Sigma) containing 0.5% Albumax (Invitrogen), […] hypoxanthine (Lancaster), and 50 μg/L gentamicin (Invitrogen), and incubated at 37° C. under a gas mixture of 5% O2, 5% CO2, and 90% N2. In vitro antimalarial activity was determined by a SYBR Green I fluorescence-based method described previously by Smilkstein et al. (Smilkstein et al., Antimicrob. Agents Chemother., 2004, 48:1803-1806). Frozen stock solutions of each test drug (1 mM in DMSO) were thawed, warmed to 37° C., and mixed thoroughly prior to use. Drug solutions were serially diluted with culture medium, and distributed to asynchronous parasite cultures on 96-well plates in quadruplicate in a total volume of 100 μL to achieve 0.2% parasitemia with a 2% hematocrit in a total volume of 100 μL. Automated pipeting and dilution was carried using programmable Precision XS (Bio-Tek, Winooski, Vt.) and Sciclone ALH3000 (Caliper, Hopkinton, Mass.) robotic stations. The plates then were incubated for 72 hours at temperature and gas conditions described above. After incubation, 100 μL of lysis buffer with SYBR Green I was added to each well. The plates were incubated at room temperature for 1 h and then placed in a 96-well fluorescence plate reader (Synergy4, BioTek, Winooski, Vt.) with excitation and emission wavelength at 485 nm and 528 nm, respectively, for measurement of fluorescence. The 50% inhibitory concentration (IC50) was determined by non-linear regression analysis of logistic dose-response curves (GraphPad Prism software).
# [2] = test system: chloroquine-sensitive clone D6 of P. falciparum; experiment: as above; format: cell-based, Plasmodium falciparum; conditions: for IC50: read-out: Antimalarial IC50 (D6); for IC90: read-out: Antimalarial IC90 (D6)
# Procedure: as §1
# [3] = Cytotoxicity assay (WST-8) against HCT116 cells; format: cell-based; conditions: human, HCT116 colorectal carcinoma cells, estimated
# Procedure: HCT116 (colorectal carcinoma) cells were seeded onto a 96-well plate at 10,000 cells per well. Cells were treated with either 5, 50, 500 or 5000 nM TM-025, TM-026, N-acetyl-glucosaminyl-3-aminoacetophenone or 5, 25, 50, 100 nM pactamycin in triplicate for 48 hours. For the narrow range concentration assays, cells were treated with either 0.5, 1, 2 or 4 μM TM-025; 1, 2, 3 or 5 μM TM-026; 0.5, 2, 5 or 7 μM N-acetylglucosaminyl-3-aminoacetophenone or 12.5, 25, 50, 100 nM pactamycin in triplicate for 24 or 48 hours. WST-8 [2-(2-methoxy-4-nitrophenyl)-3-[…], monosodium salt] (Dojindo, Rockville, Md.) was added to each well to give an orange-colored formazan product, which is soluble in tissue culture medium. Absorbance was measured at 450 nm. Percent of viable cells was calculated relative to the “No Treatment” and “Solvent Only” wells.
# [4] = test system: Gram-positive and Gram-negative bacteria; experiment: Antibacterial agar diffusion and micro-dilution assays, all tested strains (Example 1); format: cell-based, S. aureus, B. subtilis, P. aeruginosa, E. coli; conditions: for antibacterial activity in agar diffusion and micro-dilution assays (in words): at the concentrations used; for IC50: consistently higher than pactamycin, mostly >1 mM, read-out: IC50 against all tested bacterial strains
# Procedure: The antibacterial activity of pactamycin and its analogs was determined by agar diffusion and micro-dilution assays. E. coli, P. aeruginosa, B. subtilis or M. smegmatis, and S. aureus were streaked on nutrient agar (Difco or Beckton-Dickinson) and grown overnight at 37° C. Colonies were transferred to nutrient broth and incubated at 37° C. for 24 hours. Turbidity of the inoculum was measured to a proper density at 600 nm (BioRad, SmartSpec 3000). For plate preparation, inoculum (500 μL) was mixed thoroughly with warm nutrient agar (50 mL) and poured to 25 mL square plates. The agar plates were allowed to solidify and dry for 30 min before assay. Sterile blank paper disks (Becton-Dickinson) were impregnated with pactamycin and its analogs (20 μL) at various concentrations and dried at room temperature. The disks were placed onto inoculated agar plates and incubated at 37° C. for 24 hours. In order to produce a contrast background of the inhibition zone, 0.25% MTT developing dye (1 mL) was added over the plates.
# Micro-dilution assays were performed in 96-well plates. The compounds were serially diluted and added to the bacterial suspension at final concentrations of 1 mM-10 nM, or 0.5 mM-10 nM. After incubation at 37° C. for 24 hours, 0.25% MTT developing dye (50 μL) was added. Each assay was done in triplicate.
# E. coli = experiment: Antibacterial agar diffusion assay (Example 2); format: cell-based, Escherichia coli
# Procedure: (§2) Antibacterial activity of pactamycin and its analogues was determined by an agar diffusion assay. E. coli, Pseudomonas aeruginosa, Mycobacterium smegmatis, and Staphylococcus aureus were streaked on nutrient agar (Difco) and grown overnight at 37° C. Colonies were transferred to nutrient broth and incubated at 37° C. for 24 hours. Turbidity of the inoculum was measured to a proper density at 600 nm (BioRad, SmartSpec 3000). For plate preparation, inoculum (500 μL) was mixed thoroughly with warm nutrient agar (50 mL) and poured to 25 mL square plates. The agar plates were allowed to solidify and dry for 30 minutes before assay. Sterile blank paper disks (Becton-Dickinson) were impregnated with pactamycin and its analogues (20 μL) at various concentrations and dried at room temperature. The disks were placed onto inoculated agar plates and incubated at 37° C. for 24 hours. In order to produce a contrast background of the inhibition zone, 0.25% MTT developing dye (1 mL) was added over the plates.
# Mycobacterium smegmatis = experiment: Antibacterial agar diffusion assay (Example 2); format: cell-based
# Procedure: as §2
# Staphylococcus aureus = experiment: Antibacterial agar diffusion assay (Example 2); format: cell-based
# Procedure: as §2
# Pseudomonas aeruginosa = experiment: Antibacterial agar diffusion assay (Example 2); format: cell-based
# Procedure: as §2
# [5] = test system: human colon cancer HT-29 cells; experiment: MTT cell viability assay in HT-29 cells; format: cell-based; conditions: HT-29 cells, 24-hour
# Procedure: The MTT assay was carried out as described by Mosmann (J. Immunol. Methods, 1983, 65:55). Briefly, human colon cancer HT-29 cells (ATCC) were seeded in 96-well plates at a density of 1.0×10^4 cells per well. The growth medium consisted of phenol red-free RPMI 1640 (Invitrogen, Carlsbad, Calif.) containing 10% fetal bovine serum (Invitrogen, Carlsbad, Calif.), glutamine (2 mM), penicillin (100 units/mL) and streptomycin (100 μg/mL). After a 24-hour incubation at 37° C. in a humidified atmosphere of 5% CO2, the medium was removed and replaced with fresh RPMI 1640 medium (with or without 10% FBS and no penicillin or streptomycin). Increasing concentrations of pactamycin, pactamycate, de-6MSA pactamycin, or de-6MSA-pactamycate dissolved in DMSO were added to cells at a volume of 0.2 mL/well. DMSO was added to control media not to exceed a final concentration of 1%. Following a 24-hour incubation, the medium was aspirated from each well and replaced with fresh RPMI medium with 10% FBS and MTT (0.5 mg/mL). […] The plate was shaken for 10 minutes before reading the absorbance at 570 nm using a microplate reader (SpectraMax 250, Molecular Devices, Sunnyvale, Calif., USA). The viability of treated cells was expressed as the percentage of control cells. […]
# [6] = test system: HT-29 human colon carcinoma cells; experiment: SRB growth inhibition assay in HT-29 cells; format: cell-based
# Procedure: Growth inhibition of HT-29 cells induced by the test compounds was also evaluated by the SRB assay, which is based on measuring total biomass by staining the cellular proteins with sulforhodamine B (Skehan et al., J. Natl. Cancer Inst., 1990, 82:1107). After treating the HT-29 cells with the compounds for 24 hours, the adherent cells grown in 96-well plates were fixed with 10% trichloroacetic acid and incubated for 1 hour at 4° C. The plates were washed five times with tap water, dried, and stained with SRB solution (0.4% wt/vol in 1% acetic acid) for 30 minutes at room temperature. The plates were again washed and dried before adding 10 mM Tris base to solubilize the bound stain. Optical densities (OD) were read at 564 nm in SpectraMax 250 and cell growth of treated cells was expressed as the percentage of control cells, ODtest/ODcontrol×100%.
# [7] = Plasmodium falciparum, DD2, 72 h, P. falciparum Dd2, 72 hours
# [8] = Plasmodium falciparum, D6, 72 h, P. falciparum D6, 72 hours
# [9] = Plasmodium falciparum, DD2, 72 h
# [10] = Plasmodium falciparum, D6, 72 h
smiles,measurement,setting,value
"CC(=O)N[C@H]1C(Nc2cccc(C(C)=O)c2)O[C@H](CO)[C@@H](O)[C@@H]1O (stereo partly shown) [N-acetylglucosaminyl-3-aminoacetophenone, reference compound]",antimalarial activity (in words),[1]; P. falciparum Dd2,lack of activity
same,antimalarial activity (in words),[2]; P. falciparum D6,lack of activity
"CC(=O)c1cccc(N[C@H]2[C@H](N)[C@](C)(NC(=O)N(C)C)[C@@](C)(O)[C@@]2(O)CO)c1 [TM-025, de-6MSA-7-demethyl-7-deoxypactamycin]",IC50,[3],~1.3 µM
same,IC50,"[1]; P. falciparum Dd2, 72 hours",~0.025 µM
same,IC90,"[1]; P. falciparum Dd2, 72 hours",~0.076 µM
same,IC50,[1]; [7],0.025 to 0.03 µM
same,IC90,[1]; [7],0.062 to 0.077 µM
same,IC50,"[2]; P. falciparum D6, 72 hours",~0.025 µM
same,IC90,"[2]; P. falciparum D6, 72 hours",~0.062 µM
same,IC50,[2]; [8],0.025 to 0.03 µM
same,IC90,[2]; [8],0.062 to 0.077 µM
same,antibacterial activity in agar diffusion and micro-dilution assays (in words),[4],neither TM-025 nor TM-026 showed any significant activity
same,IC50,[4],> 1000 µM
"CC(=O)c1cccc(N[C@H]2[C@H](N)[C@](C)(NC(=O)N(C)C)[C@@](C)(O)[C@@]2(O)COC(=O)c2c(C)cccc2O)c1 [TM-026, 7-demethyl-7-deoxypactamycin]",IC50,[3],~3 µM
same,IC50,"[1]; P. falciparum Dd2, 72 hours",~0.026 µM
same,IC90,"[1]; P. falciparum Dd2, 72 hours",~0.077 µM
same,IC50,[1]; [7],0.025 to 0.03 µM
same,IC90,[1]; [7],0.062 to 0.077 µM
same,IC50,"[2]; P. falciparum D6, 72 hours",~0.03 µM
same,IC90,"[2]; P. falciparum D6, 72 hours",~0.063 µM
same,IC50,[2]; [8],0.025 to 0.03 µM
same,IC90,[2]; [8],0.062 to 0.077 µM
same,antibacterial activity in agar diffusion and micro-dilution assays (in words),[4],neither TM-025 nor TM-026 showed any significant activity
same,IC50,[4],> 1000 µM
"C[C@@H]1CC[C@H]2[C@@H](C)C(=O)O[C@@H]3O[C@@]4(C)CC[C@@H]1[C@]32OO4 [artemisinin, reference compound]",EC50,"[1]; Plasmodium falciparum, Example 2, FIG. 14, multi-drug resistant Dd2, read-out: EC50 against the Dd2 strain",0.007 µM
"CCN(CC)CCCC(C)Nc1ccnc2cc(Cl)ccc12 (stereo not shown) [chloroquine, reference compound]",EC50,"[2]; Plasmodium falciparum, D6, read-out: EC50 against the D6 strain",0.01 µM
CC(=O)c1cccc(N[C@H]2[C@H](N)[C@]3(NC(=O)O[C@H]3C)[C@@](C)(O)[C@@]2(O)CO)c1 [de-6MSA-pactamycate],"antibacterial activity, growth of E. coli",E. coli,no antibacterial activity
same,"antibacterial activity, growth of Mycobacterium smegmatis",Mycobacterium smegmatis,no antibacterial activity
same,"antibacterial activity, growth of Staphylococcus aureus",Staphylococcus aureus,no antibacterial activity
same,"antibacterial activity, growth of Pseudomonas aeruginosa",Pseudomonas aeruginosa,no antibacterial activity
"CC(=O)c1cccc(N[C@H]2[C@H](N)[C@]3(NC(=O)O[C@H]3C)[C@@](C)(O)[C@@]2(O)COC(=O)c2c(C)cccc2O)c1 [pactamycate, reference compound]","antibacterial activity, growth of E. coli",E. coli,no antibacterial activity
same,cytotoxicity profile (MTT-based assay),[5],reduced cytotoxicity profile
same,"antibacterial activity, growth of Mycobacterium smegmatis",Mycobacterium smegmatis,no antibacterial activity
same,"antibacterial activity, growth of Staphylococcus aureus",Staphylococcus aureus,no antibacterial activity
same,"antibacterial activity, growth of Pseudomonas aeruginosa",Pseudomonas aeruginosa,no antibacterial activity
same,cytotoxicity profile (SRB-based assay),[6],reduced cytotoxicity profile
same,IC50,[1]; [9],~0.3 µM
same,IC90,[1]; [9],~0.8 µM
same,IC50,[2]; [10],~0.3 µM
same,IC90,[2]; [10],~0.8 µM
